Source: paper PMC13308190, “Endothelial progenitor cell susceptibility to DNA damaging and DDR-modulating compounds determines endothelial differentiation accuracy” (Stem Cell Research & Therapy, 2026)

How the values were obtained:
[1] = test system: EC d6; test: EdU incorporation (S-phase activity); type: cell-based, mouse; settings: EC d6 24 h; Dox up to 0.1 µM
[2] = test system: EC d6; test: Nuclear γH2AX / 53BP1 foci (DSB); settings: EC d6 24 h, equitoxic concentrations
[3] = test system: EC d4; test: Mitochondrial membrane potential (TMRM-MitoTracker Green); type: cell-based, mouse; settings: EC d4 treated 48 h, analysed in EC d6; Dox 0.05 µM
Protocol: Mitochondrial membrane potential (ΔΨm) was analyzed by live-cell imaging using TMRM-MitoTracker Green co-staining. Cells were seeded and differentiated on Poly-D-Lysine-fibronectine-coated live-imaging dishes. For staining, cells were incubated with 200nM MitoTracker Green (Invitrogen) and 50 nM TMRM (Invitrogen) in DMEM (30 min, 37 °C, 5% CO2). After washing with PBS, live-cell microscopy was performed using a spinning disc confocal microscope (PerkinElmer) equipped with a 60x oil-immersion objective (N.A = 1.49) and a Hamamatsu C9100 camera (1000 × 1000 pixel) (excitation (MitoTracker Green): 488 nm, excitation (TMRM): 561 nm). The cells were kept at 37 °C in OptiMEM supplemented with 10 mM HEPES during imaging. The images were obtained at emission wavelength of 527 nm (W55) and 615 nm (W70) for 488 nm and 561 nm excitation, respectively.

[4] = test system: EC d6; test: Alkaline comet assay; settings: EC d6 24 h
[5] = test system: EC d4; test: Doxorubicin import/export (flow cytometry); type: cell-based, mouse; settings: EC d4, 2 h pulse then 6 h post-incubation
Protocol: Import and export of Dox were examined via flow cytometry. […] Trypsinized cells were washed with PBS and pelleted by centrifugation (200 x g, 5 min, 4 °C). After additional washing, cells were resuspended in PBS.

[6] = test system: primary murine cardiac endothelial cells; test: RT-qPCR mRNA expression; type: cell-based, mouse
[7] = test system: mESC; test: Alkaline comet assay; settings: mESC 24 h
[8] = test system: EC d4; test: Alkaline comet assay; settings: EC d4 48 h
[9] = test system: EC d4; test: DNA fiber spreading assay; type: cell-based, mouse; settings: EC d4 48 h; HU: 5 mM, 1 h
Protocol: To analyze DNA replication fork progression, the DNA fiber spreading assay was performed. Briefly, cells were pulse-labeled with 20 µM CldU (20 min, 37 °C, 5% C0_2) and immediately afterwards with 200 µM IdU (20 min, 37 °C, 5% C02). Cell suspension was applied onto glass slides followed by cell lysis (0.5% SDS, 200 mM Tris–HCl, 50 mM EDTA). After incubation (6 min, RT), slides were tilted upwards to stretch the fibers, dried 6 min lying horizontally flat and fixed (5 min, RT) in methanol: acetic acid (3:1). After drying (7 min, lying horizontally flat) slides were stored overnight in 70% ethanol (4 °C). The next day samples were incubated in 100% methanol (5 min, RT) followed by denaturation in 2.5 M HCl (1 h, RT) and blocking (5% BSA in PBS, 1 h, 37 °C). DNA Fibers were stained with rat anti-BrdU (1:40) for CldU detection and mouse anti-BrdU (1:70) for IdU detection (in 0.5% BSA/PBS; 1 h, RT). After washing (0.05% Tween 20 in PBS and PBS) incubation with secondary antibodies anti-rat 488 (1:400) and anti-mouse 555 (1:250) was performed (1 h, RT, 0.5% BSA in PBS). Following washing with 0.05% Tween 20 in PBS and PBS, the slides were mounted with Fluoroshield (Sigma [Steinheim, Germany]). DNA fibers were analyzed microscopically (Olympus BX43 fluorescence microscope [40 objective]). The length of CldU (green) and IdU (red) tract was measured using ImageJ software, analyzing 200 fibers per experimental condition.

What does the source list for COc1cccc2c1C(=O)c1c(O)c3c(c(O)c1C2=O)C[C@@](O)(C(=O)CO)C[C@@H]3O[C@H]1C[C@H](N)[C@H](O)[C@H](C)O1 [Dox, doxorubicin]?
number of EdU-positive cells [1]: remained unaffected; DSB formation (γH2AX / 53BP1 foci) [2]: significant increase; mitochondrial membrane potential [3]: strongest drop in mitochondrial membrane potential; steady-state level of SSB (alkaline comet assay) [4]: no or only a minor increase; Dox efflux capacity as compared to the other differentiation stages [5]: enhanced export activity; Ccn1a mRNA ([6]; 1 µM, 24 h, Fig 7E): 0.52 Fold of untreated control; Ccnd2 mRNA ([6]; 1 µM, 24 h, Fig 7E): 2.92 Fold of untreated control; Cdkn1a mRNA ([6]; 1 µM, 24 h, Fig 7E): 12.45 Fold of untreated control; Cdkn2a mRNA ([6]; 1 µM, 24 h, Fig 7E): 2.56 Fold of untreated control; Cxc1 mRNA ([6]; 1 µM, 24 h, Fig 7E): 10.16 Fold of untreated control; E2f1 mRNA ([6]; 1 µM, 24 h, Fig 7E): 0.54 Fold of untreated control; Glb1 mRNA ([6]; 1 µM, 24 h, Fig 7E): 2.10 Fold of untreated control; Il6 mRNA ([6]; 1 µM, 24 h, Fig 7E): 16.90 Fold of untreated control; Il8 mRNA ([6]; 1 µM, 24 h, Fig 7E): 2.54 Fold of untreated control; Mmp3 mRNA ([6]; 1 µM, 24 h, Fig 7E): 1.42 Fold of untreated control; Mybl2 mRNA ([6]; 1 µM, 24 h, Fig 7E): 0.053 Fold of untreated control; Tp53 mRNA ([6]; 1 µM, 24 h, Fig 7E): 1.66 Fold of untreated control; upregulation of Il6, Cxc1 and Cdkn1a mRNA ([6]; Dox 24 h): about 10 fold; steady-state level of SSB (alkaline comet assay) [7]: significant increase; steady-state level of SSB (alkaline comet assay) [8]: no or only a minor increase

With Nc1ccccc1NC(=O)c1ccc(CNC(=O)OCc2cccnc2)cc1 [EST, entinostat] as the compound, how does the replication fork progression [9] read?
Its replication fork progression is “opposite effects”.
